Results published in PMC6437269, “OXA-48-Mediated Ceftazidime-Avibactam Resistance Is Associated with Evolutionary Trade-Offs” (mSphere, 2019).
≈ marks a conversion by molar mass, not a printed value. Where two headings read alike, the source gives them in different places.

Columns and labels:
E. coli MG1655 (MP100) = experiment: microbe, parasite or virus in culture; format: cell-based, Escherichia coli; conditions: Escherichia coli, MG1655
Description: (§1) For MIC determination, single colonies were suspended in 0.9% saline buffer to a 0.5 McFarland standard and further diluted 1:100 in MH broth. Fifty microliters of the bacterial suspension was loaded onto in-house-designed and premade Sensititre microtiter plates (TREK Diagnostic Systems/Thermo Fisher Scientific, East Grinstead, United Kingdom). The plates were incubated for 20 h at 37°C. Antibiotic susceptibility testing was performed in duplicates.

[1] = system: MP107 (MP100 transformed with p50579417_3_OXA-48-CAZ); experiment: MIC determination, MP107 (MG1655 with CAZ-adapted plasmid); format: cell-based; conditions: Escherichia coli; Table 6; MP107, adapted plasmid p50579417-OXA-48-CAZ
Description: as §1

[2] = system: MP105 (E. coli TOP10 expressing OXA-48:P68A); experiment: microbe, parasite or virus in culture; format: cell-based; conditions: Escherichia coli; Table 3; MP105, OXA-48:P68A in pCR-blunt II TOPO
[3] = system: MP108 (MP100 transformed with p50579417_3_OXA-48-CAZ-AVI); experiment: MIC determination, MP108 (MG1655 with CAZ-AVI-adapted plasmid); format: cell-based; conditions: Escherichia coli; Table 6; MP108, adapted plasmid p50579417-OXA-48-CAZ-AVI
Description: as §1

[4] = system: MP101 (MP100 transformed with p50579417_3_OXA-48); experiment: MIC determination, MP101 (MG1655 with native OXA-48 plasmid); format: cell-based, Escherichia coli; conditions: Escherichia coli; Table 6; MP101, native plasmid; read-out: MIC
Text: Mueller-Hinton (MH) agar and broth were purchased from Thermo Fisher Scientific (East Grinstead, United Kingdom). Luria-Bertani (LB) broth, LB agar, ampicillin, amoxicillin, cefepime, CAZ, imipenem, meropenem, piperacillin, and tazobactam were obtained from Sigma-Aldrich (St. Louis, MO). Nitrocefin was purchased from Merck (Darmstadt, Germany). The characteristics of the clinical E. coli strain 50579417 harboring the OXA-48 plasmid (p50579417_3_OXA-48) have been described previously ([61], [62]). The plasmid p50579417_3_OXA-48 was conjugated into rifampin-resistant E. coli TOP10 and subsequently isolated using a plasmid mini-purification kit (Qiagen, Germany). E. coli MG1655 (DA4201) was electroporated with p50579417_3_OXA-48 as published previously ([63]). Transformants positive for blaOXA-48 were checked by PCR using REDTaq ready mix (Sigma-Aldrich, St. Louis, MO) and preOXA-48 primers ([61]).
as §1

E. coli TOP10 = experiment: microbe, parasite or virus in culture; format: cell-based; conditions: Escherichia coli
Description: as §1

[5] = system: MP104 (E. coli TOP10 expressing native OXA-48); experiment: MIC determination, TOP10 expressing native OXA-48 (MP104); format: cell-based; conditions: Escherichia coli; Table 3; MP104, native OXA-48 in pCR-blunt II TOPO
Description: as §1
For a functional resistance profile, the native and mutated blaOXA-48 genes were cloned in the pCR-blunt II-TOPO vector (Invitrogen, CA) and expressed in E. coli TOP10 (Invitrogen, CA). The PCR product was obtained by Phusion High Fidelity PCR mastermix with High Fidelity buffer (New England Biolabs, MA) and preOXA-48 primers ([61]). Transformants were selected on LB agar plates containing 50 or 100 mg/liter ampicillin. Insertion size was verified by Sanger sequencing using M13 forward (5′-[…]-3′) and reverse (5′-[…]-3′) primers.

OXA-48:P68A = OXA-48:P68A (Klebsiella pneumoniae, UniProt Q6XEC0, P68A); experiment: Steady-state enzyme kinetics, OXA-48:P68A; format: biochemical; conditions: substrate hydrolysis, 25°C, pH 7.0, error = 95% CI
[6] = system: CC1(C)S[C@@H]2[C@H](NC(=O)[C@H](N)c3ccccc3)C(=O)N2[C@H]1C(=O)O; experiment: purified protein, by the assay type; conditions: other: substrate hydrolysis, 25°C, 0.1 M phosphate buffer pH 7.0, 50 mM NaHCO3, error = 95% CI
[7] = system: CC(C)(O/N=C(\C(=O)N[C@@H]1C(=O)N2C(C(=O)[O-])=C(C[n+]3ccccc3)CS[C@H]12)c1csc(N)n1)C(=O)O; experiment: purified protein, by the assay type; conditions: other: substrate hydrolysis, 25°C, 0.1 M phosphate buffer pH 7.0, 50 mM NaHCO3, error = 95% CI
[8] = system: C[C@@H](O)[C@H]1C(=O)N2C(C(=O)O)=C(SCCN=CN)C[C@H]12; experiment: purified protein, by the assay type; conditions: other: substrate hydrolysis, 25°C, 0.1 M phosphate buffer pH 7.0, 50 mM NaHCO3, error = 95% CI
[9] = system: C[C@@H](O)[C@H]1C(=O)N2C(C(=O)O)=C(S[C@@H]3CN[C@H](C(=O)N(C)C)C3)[C@H](C)[C@H]12; experiment: purified protein, by the assay type; conditions: other: substrate hydrolysis, 25°C, 0.1 M phosphate buffer pH 7.0, 50 mM NaHCO3, error = 95% CI
[10] = system: CO/N=C(\C(=O)N[C@@H]1C(=O)N2C(C(=O)[O-])=C(C[N+]3(C)CCCC3)CS[C@H]12)c1csc(N)n1; experiment: purified protein, by the assay type; conditions: other: substrate hydrolysis, 25°C, 0.1 M phosphate buffer pH 7.0, 50 mM NaHCO3, error = 95% CI
[11] = system: CCN1CCN(C(=O)N[C@@H](C(=O)N[C@@H]2C(=O)N3[C@@H]2SC(C)(C)[C@@H]3C(=O)O)c2ccccc2)C(=O)C1=O; experiment: purified protein, by the assay type; conditions: other: substrate hydrolysis, 25°C, 0.1 M phosphate buffer pH 7.0, 50 mM NaHCO3, error = 95% CI
[12] = system: O=C(Cc1cccs1)N[C@@H]1C(=O)N2C(C(=O)O)=C(/C=C/c3ccc([N+](=O)[O-])cc3[N+](=O)[O-])CS[C@H]12; experiment: purified protein, by the assay type; conditions: other: substrate hydrolysis, 25°C, 0.1 M phosphate buffer pH 7.0, 50 mM NaHCO3, error = 95% CI
crystal structure = target: the molecule itself; experiment: crystal structure

CO/N=C(\C(=O)N[C@@H]1C(=O)N2C(C(=O)O)=C(COC(C)=O)CS[C@H]12)c1csc(N)n1 [FOT, cefotaxime]
MIC (E. coli MG1655 (MP100); Table 6, MP100, read-out: MIC): 0.12 µg/mL (≈ 0.263 µM)
MIC [1]: 1 µg/mL (≈ 2.2 µM)
MIC [2]: 0.25 µg/mL (≈ 0.549 µM)
MIC [3]: 0.25 µg/mL (≈ 0.549 µM)
MIC [4]: 0.5 µg/mL (≈ 1.1 µM)
MIC (E. coli TOP10; Table 3, read-out: MIC): 0.12 µg/mL (≈ 0.263 µM)
MIC [5]: 0.25 µg/mL (≈ 0.549 µM)

C[C@@H](O)[C@H]1C(=O)N2C(C(=O)O)=C(SCCN=CN)C[C@H]12 [IMI, imipenem]
MIC (E. coli MG1655 (MP100)): 0.12 µg/mL (≈ 0.401 µM)
MIC [1]: 0.25 µg/mL (≈ 0.835 µM)
MIC [2]: 0.25 µg/mL (≈ 0.835 µM)
MIC [3]: 0.25 µg/mL (≈ 0.835 µM)
Km (OXA-48:P68A): 4.2 ± 0.9 µM
kcat (OXA-48:P68A): 0.80 ± 0.04 s⁻¹
MIC [4]: 1 µg/mL (≈ 3.34 µM)
MIC (E. coli TOP10): 0.25 µg/mL (≈ 0.835 µM)
MIC [5]: 1 µg/mL (≈ 3.34 µM)

C[C@@H](O)[C@H]1C(=O)N2C(C(=O)O)=C(S[C@@H]3CN[C@H](C(=O)N(C)C)C3)[C@H](C)[C@H]12 [MEM, meropenem]
MIC (E. coli MG1655 (MP100); Table 6, MP100, read-out: MIC): 0.03 µg/mL (≈ 0.0782 µM)
MIC [1]: 0.06 µg/mL (≈ 0.156 µM)
MIC [2]: 0.03 µg/mL (≈ 0.0782 µM)
MIC [3]: 0.06 µg/mL (≈ 0.156 µM)
Km (OXA-48:P68A): 3 ± 1 µM
kcat (OXA-48:P68A): (8 ± 0.8) × 10^−4 s^−1
MIC [4]: 0.25 µg/mL (≈ 0.652 µM)
MIC (E. coli TOP10; Table 3, read-out: MIC): 0.03 µg/mL (≈ 0.0782 µM)
MIC [5]: 0.25 µg/mL (≈ 0.652 µM)

O=C(Cc1cccs1)N[C@@H]1C(=O)N2C(C(=O)O)=C(/C=C/c3ccc([N+](=O)[O-])cc3[N+](=O)[O-])CS[C@H]12 [NIT, nitrocefin]
kcat (OXA-48:P68A): 37 ± 2 s⁻¹
Km (OXA-48:P68A; read-out: Km): 53 ± 8 µM

CCN1CCN(C(=O)N[C@@H](C(=O)N[C@@H]2C(=O)N3[C@@H]2SC(C)(C)[C@@H]3C(=O)O)c2ccccc2)C(=O)C1=O [PIP, piperacillin]
Km (OXA-48:P68A; read-out: Km): 290 ± 67 µM

CO[C@@]1(NC(=O)C(C(=O)O)c2ccsc2)C(=O)N2[C@@H](C(=O)O)C(C)(C)S[C@@H]21 (stereo partly drawn) [TRM, temocillin]
MIC (E. coli MG1655 (MP100); Table 6, MP100, read-out: MIC): 8 µg/mL (≈ 19.3 µM)
MIC [1]: 128 µg/mL (≈ 309 µM)
MIC [2]: 64 µg/mL (≈ 154 µM)
MIC [3]: 32 µg/mL (≈ 77.2 µM)
MIC [4]: 256 µg/mL (≈ 618 µM)
MIC (E. coli TOP10; Table 3, read-out: MIC): 16 µg/mL (≈ 38.6 µM)
MIC [5]: 256 µg/mL (≈ 618 µM)

OXA-48 (Klebsiella pneumoniae)
Km [6]: 370 ± 70 µM
kcat [6]: 608 ± 53 s⁻¹
kcat/Km [6]: 1.64e+06 ± 455000 M⁻¹ s⁻¹
Km [7]: 300 ± 150 µM
kcat [7]: 3 ± 0.8 s⁻¹
kcat/Km [7]: 10000 ± 8000 M⁻¹ s⁻¹
Km [8]: 13 ± 2 µM
kcat [8]: 4.8 ± 0.2 s⁻¹
kcat/Km [8]: 365000 ± 71000 M⁻¹ s⁻¹
Km [9]: 4 ± 1 µM
kcat [9]: 0.71 ± 0.02 s⁻¹
kcat/Km [9]: 177000 ± 50000 M⁻¹ s⁻¹
Km [10]: 1,678 ± 686 µM
kcat [10]: 1.7 ± 0.6 s⁻¹
kcat/Km [10]: 1000 ± 800 M⁻¹ s⁻¹
Km [11]: 898 ± 155 µM
kcat [11]: 3.9 ± 0.5 s⁻¹
kcat/Km [11]: 4000 ± 1000 M⁻¹ s⁻¹
Km [12]: 226 ± 34 µM
kcat [12]: 141 ± 12 s⁻¹
kcat/Km [12]: 624000 ± 148000 M⁻¹ s⁻¹

B1: OXA-48:P68A (enzyme)
chain: KEWQENKSWNAHFTEHKSQGVVVLWNENKQQGFTNNLKRANQAFLAASTFKIPNSLIALDLGVVKDEHQVFKWDGQTRDIATWNRDHNLITAMKYSVVPVYQEFARQIGEARMSKMLHAFDYGNEDISGNVDSFWLDGGIRISATEQISFLRKLYHNKLHVSERSQRIVKQAMLTEANGDYIIRAKTGYSTRIEPKIGWWVGWVELDDNVWFFAMNMDMPTSDGLGLRQAITKEVLKQEKIIP
notes: also called OXA-48:P68A-CAZ; OXA-48:P68A-AVI; source: E. coli Rosetta 2(DE3)/pLysS, purified (>95% purity)
binding result (crystal structure): binds
